# Experimental data published in publication PMC3830731 (ACS chemical biology, 2013).
# Key:
# [1] = target: T1, MtmOIV (Streptomyces argillaceus, UniProt Q194P4); assay: X-ray crystal structure, […] Å; format: binding; conditions: non-covalently bound
# [2] = target: T1, MtmOIV; assay: NADPH oxidation, fluorescence; format: biochemical; conditions: 2 mM premithramycin B, 0.1 mM FAD, O2; 100 mM Tris-HCl pH 8.25, 30 °C
# [3] = target: MtmOIV (Streptomyces argillaceus, UniProt Q194P4, R173A, form not given); assay: NADPH oxidation, fluorescence; format: biochemical; conditions: 2 mM premithramycin B, 0.1 mM FAD, O2; 100 mM Tris-HCl pH 8.25, 30 °C
SMILES,"X-ray crystal structure, 2.0 Å [1]",Km [2] [µM],Km [3] [µM]
Cc1cc2nc3c(=O)[nH]c(=O)nc-3n(C[C@H](O)[C@H](O)[C@H](O)COP(=O)(O)OP(=O)(O)OC[C@H]3O[C@@H](n4cnc5c(N)ncnc54)[C@H](O)[C@@H]3O)c2cc1C [FAD],a single non-covalently bound FAD cofactor,,
NC(=O)C1=CN([C@@H]2O[C@H](COP(=O)(O)OP(=O)(O)OC[C@H]3O[C@@H](n4cnc5c(N)ncnc54)[C@H](OP(=O)(O)O)[C@@H]3O)[C@@H](O)[C@H]2O)C=CC1 [NADPH],,372 ± 68,528 ± 63
